This is an account of results in US10301292B2, “Bicyclic compound” (Takeda Pharmaceutical Company Limited, priority 2014, dated 2019).

Structures are written as SMILES.

Assay [1] addresses T1, human ACC1 (Homo sapiens, UniProt Q13085).
T1 construct: His tag (from vector pFAST-BacHTc; protein captured on Ni-NTA) (N); made in house; host or cells: SF-9 insect cells, recombinant baculovirus BAC-ACC1
The experiment in a line: Measurement of ACC1 inhibitory activity (Malonyl-CoA production, RapidFire-mass spectrometry). The format is biochemical. Particulars: 10 μM of the test compound; recombinant human ACC1; read-out: ACC1 inhibitory rate (%) at 10 μM. As for the experimental part: (1) Cloning of Human ACC1 Gene and Preparation of Recombinant Baculovirus
Human ACC1 gene was cloned by PCR using a human liver cDNA library (Clontech) as a template and Primer 1 and Primer 2 shown below. Primer 1 and Primer 2 were prepared by adding SalI, NotI restriction enzyme recognition sequences based on the information of the base sequence of human ACC1 gene (Genbank Accession U19822).
PCR was performed using Pyrobest DNA polymerase (TAKARA BIO INC.). The obtained PCR product was cloned to pT7 Blue vector (Novagen) and after confirmation of the base sequence, digested with restriction enzymes SalI and XbaI. The obtained DNA fragment was inserted into pFAST-BacHTc (Invitrogen) digested with restriction enzymes SalI and XbaI to give expression plasmid ACC1/pFAST-BacHTc.
Using the expression plasmid ACC1/pFAST-BacHTc and BAC-TO-BAC Baculovirus Expression System (Invitrogen), virus stock BAC-ACC1 of recombinant Baculovirus was prepared.
(2) Preparation of ACC1 Protein
SF-9 cells (Invitrogen) were inoculated to a medium (10 L) for insect cells (Sf-900IISFM medium (Invitrogen) containing 5% fetal bovine serum (Trace), 50 mg/L Gentamicin (Wako Pure Chemical Industries, Ltd.), 0.1% Pluronic F-68 (Invitrogen)) at 1.0×10^6 cells/mL, and cultured with shaking in Wave Bioreactor (GE Healthcare) at 27° C., 20 rpm, rocking angle 10°, oxygen concentration 30%.
On day 2 of the culture, recombinant Baculovirus BAC-ACC1 was added, and the cells were cultured for 3 days. The culture medium was centrifuged at 4000×g for 10 min to give virus-infected cells. The cells were washed with phosphate buffered saline (Invitrogen) and centrifuged under the same conditions. The obtained cells were cryopreserved at −80° C.
The cryopreserved cells were thawed in ice and suspended in 800 mL of 25 mM HEPES buffer (pH 7.5) containing 10% Glycerol, 0.3 M NaCl, 1 mM EDTA, 25 mM Sodium β-Glycerophosphate and 1 mM Sodium Orthovanadate, and supplemented with Complete Protease Inhibitor (Roche). The obtained suspension was homogenized two times in a polytron homogenizer (Kinematica) at 20,000 rpm for 20 sec. The obtained cell disruption solution was clarified by centrifugation at 186,000×g for 60 min and the supernatant was passed through Ni-NTA Superflow Cartridges (5 mL) (QUIAGEN). Furthermore, it was washed with 25 mM HEPES buffer (pH 7.5) containing 20 mM Imidazole, 0.3 M NaCl, and eluted with 25 mM HEPES buffer (pH 7.5) containing 250 mM Imidazol, 0.3 M NaCl. The eluate was concentrated by Amicon Ultra-15 (Nihon Millipore K.K.) having a fraction molecular weight of 50K. The obtained concentrate was subjected to gel filtration with 50 mM HEPES buffer (pH 7.5) containing 10 mM MgCl2, 2 mM dithiothreitol, 10 mM tripotassium citrate, 0.3 M NaCl by using HiLoad 26/60 Superdex200 prep grade gel filtration column (GE Healthcare) to give ACC1. The obtained ACC1 was cryopreserved at −80° C.
(3) Measurement of ACC1 Inhibitory Activity
ACC1 obtained in the above-mentioned (2) was diluted with an enzyme reaction buffer (50 mM HEPES (pH 7.5), 10 mM MgCl2, 10 mM Tripottasium Citrate, 2 mM Dithiothreitol, 0.001% Fatty acid free BSA) to a concentration of 0.2 μg/ml, and the mixture was added to each well of a 384 well assay plate by 10 μl. A test compound dissolved in dimethyl sulfoxide (DMSO) was diluted with an enzyme reaction buffer and the resulting solution (5 μl) was added to each well. The mixture was incubated at room temperature for 60 min. Then, a substrate solution (50 mM KHCO3, 200 μM ATP, 200 μM Acetyl-CoA, 5 μl) was added to each well, and the mixture was reacted at room temperature for 30 min. The reaction was quenched by adding a reaction quenching liquid (1.3% formic acid, 0.2 μM Malonyl-^13C3-CoA) by 60 μL each to the obtained reaction mixtures (test compound addition group).
In addition, a reaction was performed in the same manner as above and without adding the test compound (test compound non-addition group). […]

The test system of assay [2] is HCT116 cells. The experiment in a line: Growth inhibitory activity on HCT116 cell (CellTiter-Glo). The class given is cell-based. To be noted: Homo sapiens, HCT-116, 72 h, table head: 10 μM (text b2498: 1 μM), 3 days incubation, read-out: HCT116 cell proliferation inhibitory rate (%) at 10 μM. On the procedure: The growth inhibitory activity of the compound on HCT116 cell was evaluated by the following method.
HCT116 cells were seeded in a 384 well blackplate at 900 cells/30 μL/well, and maintained in an RPMI medium (Wako)) containing an assay medium (2% fetal bovine serum, 50 Unit/mL penicillin, 50 μg/mL streptomycin (Invitrogen). The next day, a test compound dissolved in dimethyl sulfoxide (DMSO) was diluted with the assay medium, and the obtained compound solution was added by 10 μL to each well of a plate containing HCT116 cells and incubated at 37° C., 5% CO2 (test compound addition group).
A similar reaction was performed without adding a test compound (test compound non-addition group).
Furthermore, a similar reaction was performed under the conditions without adding HCT116 cell and a test compound (control group).
After 3 days, 20 μL of a CellTiter-Glo reagent (Promega KK) was added to the well, and the mixture was stirred for 10 min. Thereafter, the luminescence value of each well was measured by the EnVision™ multilabel counter (Perkin Elmer Inc.).
The HCT116 cell proliferation inhibitory rate (%) of the test compound was determined by the following calculation formula. (1−(luminescence of test compound addition group−luminescence of control group)÷(luminescence of test compound nonaddition group−luminescence of control group))×100

With `CC(NC(=O)N(C)C)c1ccc2nc(-c3ccc(Oc4cccc(OCC5CC5)c4)nc3)oc2c1` (stereo not drawn) [Example 101, 3-(1-(2-(6-(3-(cyclopropylmethoxy)phenoxy)pyridin-3-yl)-1,3-benzoxazol-6-yl)ethyl)-1,1-dimethylurea], the inhibition at 10 µM in assay [1] came to 96%; in assay [2], 30%.
For `CCCn1cc(Oc2ccc(-c3nc4ccc(C(C)NC(C)=O)cc4o3)cn2)ccc1=O` (stereo not drawn) [Example 102, N-(1-(2-(6-((6-oxo-1-propyl-1,6-dihydropyridin-3-yl)oxy)pyridin-3-yl)-1,3-benzoxazol-6-yl)ethyl)acetamide] the same measures were 94% and 30%.
As to `CC(=O)NC(C)c1cc2cc(-c3cnc(Oc4cccc(OCC5CC5)c4)cn3)ccc2o1` (stereo not drawn) [Example 103, N-(1-(5-(5-(3-(cyclopropylmethoxy)phenoxy)pyrazin-2-yl)-1-benzofuran-2-yl)ethyl)acetamide], the results for the inhibition at 10 µM in assay [1] and in assay [2] were 100% and 29%, respectively.
The like results for `CC(=O)NC(C)c1ccc2nc(-c3ccc(Oc4cccc(OCC5CC5)c4)cc3)oc2n1` (stereo not drawn) [Example 104, N-(1-(2-(4-(3-(cyclopropylmethoxy)phenoxy)phenyl)[1,3]oxazolo[5,4-b]pyridin-5-yl)ethyl)acetamide] were, in that order, 98% and 30%.
For `CCCCn1cc(Oc2ccc(-c3nc4ccc(C(C)NC(C)=O)cc4o3)cn2)ccc1=O` (stereo not drawn) [Example 105, N-(1-(2-(6-((1-butyl-6-oxo-1,6-dihydropyridin-3-yl)oxy)pyridin-3-yl)-1,3-benzoxazol-6-yl)ethyl)acetamide] the same measures were 96% and 46%.
For `CC(NC(N)=O)c1ccc2nc(-c3ccc(Oc4cncc(OCC5CC5)c4)nc3)oc2c1` (stereo not drawn) [Example 106, 1-(1-(2-(6-((5-(cyclopropylmethoxy)pyridin-3-yl)oxy)pyridin-3-yl)-1,3-benzoxazol-6-yl)ethyl)urea] the same measures were 103% and 33%.
With `CC(NC(N)=O)c1ccc2nc(-c3ccc(Oc4cccc(OCC(C)(F)F)c4)nc3)oc2c1` (stereo not drawn) [Example 107, 1-(1-(2-(6-(3-(2,2-difluoropropoxy)phenoxy)pyridin-3-yl)-1,3-benzoxazol-6-yl)ethyl)urea], the inhibition at 10 µM in assay [1] turned out to be 97%; in assay [2], 32%.
The like results for `CC(NC(N)=O)c1ccc2nc(-c3ccc(Oc4cccc(OCC5CC5)c4)nc3)oc2c1F` (stereo not drawn) [Example 108, 1-(1-(2-(6-(3-(cyclopropylmethoxy)phenoxy)pyridin-3-yl)-7-fluoro-1,3-benzoxazol-6-yl)ethyl)urea] were, in that order, 100% and 36%.
As to `CC(NC(N)=O)c1ccc2nc(-c3cnc(Oc4cccc(OCC5CC5)c4)cn3)oc2c1` (stereo not drawn) [Example 109, 1-(1-(2-(5-(3-(cyclopropylmethoxy)phenoxy)pyrazin-2-yl)-1,3-benzoxazol-6-yl)ethyl)urea], the results for the inhibition at 10 µM in assay [1] and in assay [2] were 97% and 27%, respectively.
